Results as given in ChEMBL document CHEMBL3046832, “Synthesis of some sulfonamides, disubstituted sulfonylureas or thioureas and some structurally related variants. A class of promising antitumor agents” (2007).

Tests used:
Format in all cases: functional
SF-268 = assay: Cytotoxicity against Homo sapiens (human) SF268 cells assessed as cellular growth after 48 hr by Alamar blue assay; design: concentration or dose not given beside the values
OVCAR-4 = assay: Cytotoxicity against Homo sapiens (human) OVCAR4 cells after 48 hr by SRB assay; conditions: OVCAR-4, 48 h
CAKI-1 = assay: Cytotoxicity against Homo sapiens (human) Caki1 cells after 48 hr by SRB assay; conditions: CAKI-1, 48 h
NCI-H522 = assay: Cytotoxicity against Homo sapiens (human) NCI-H522 cells after 48 hr by SRB assay; conditions: NCI-H522, 48 h
M14 = assay: Cytotoxicity against Homo sapiens (human) M14 cells after 48 hr by SRB assay; conditions: M14, 48 h
[1] = Cytotoxicity against Homo sapiens (human) renal cancer cells after 48 hr by SRB assay; conditions: Cancer cell lines
U-251 = assay: Cytotoxicity against Homo sapiens (human) U251 cells after 48 hr by SRB assay; conditions: U-251, 48 h
MDA-MB-231 = assay: Cytotoxicity against Homo sapiens (human) MDA-MB-231 cells after 48 hr by SRB assay; conditions: MDA-MB-231, 48 h
[2] = Cytotoxicity against Homo sapiens (human) NCI-ADR-RES cells after 48 hr by SRB assay
MOLT-4 = assay: Cytotoxicity against Homo sapiens (human) MOLT4 cells after 48 hr by SRB assay; conditions: MOLT-4, 48 h
IGROV-1 = assay: Cytotoxicity against Homo sapiens (human) IGROV1 cells after 48 hr by SRB assay; conditions: IGROV-1, 48 h
786-0 = assay: Cytotoxicity against Homo sapiens (human) 786-0 cells after 48 hr by SRB assay; conditions: 786-0, 48 h
EKVX = assay: Cytotoxicity against Homo sapiens (human) EKVX cells after 48 hr by SRB assay
RXF 393 = assay: Cytotoxicity against Homo sapiens (human) RXF393 cells after 48 hr by SRB assay; conditions: RXF 393, 48 h
Hs-578T = assay: Cytotoxicity against Homo sapiens (human) Hs578T cells after 48 hr by SRB assay
UACC-62 = assay: Cytotoxicity against Homo sapiens (human) UACC62 cells after 48 hr by SRB assay; conditions: UACC-62, 48 h
HOP-62 = assay: Cytotoxicity against Homo sapiens (human) HOP62 cells after 48 hr by SRB assay; conditions: HOP-62, 48 h
SNB-19 = assay: Cytotoxicity against Homo sapiens (human) SNB19 cells after 48 hr by SRB assay; conditions: SNB-19, 48 h
[3] = Cytotoxicity against Homo sapiens (human) ovarian cancer cells after 48 hr by SRB assay; conditions: Cancer cell lines
A549 = assay: Cytotoxicity against Homo sapiens (human) A549 cells after 48 hr by SRB assay; conditions: A549, 48 h
NCI-H460 = assay: Cytotoxicity against Homo sapiens (human) NCI-H460 cells assessed as cellular growth after 48 hr by Alamar blue assay; design: concentration or dose not given beside the values
[4] = Cytotoxicity against Homo sapiens (human) CNS cancer cells after 48 hr by SRB assay; conditions: Cancer cell lines
[5] = Cytotoxicity against Homo sapiens (human) colon cancer cells after 48 hr by SRB assay; conditions: Cancer cell lines
PC-3 = assay: Cytotoxicity against Homo sapiens (human) PC3 cells after 48 hr by SRB assay; conditions: PC-3, 48 h
SK-OV-3 = assay: Cytotoxicity against Homo sapiens (human) SKOV3 cells after 48 hr by SRB assay; conditions: SK-OV-3, 48 h
HCT-15 = assay: Cytotoxicity against Homo sapiens (human) HCT15 cells after 48 hr by SRB assay; conditions: HCT-15, 48 h
T47D = assay: Cytotoxicity against Homo sapiens (human) T47D cells after 48 hr by SRB assay
HOP-92 = assay: Cytotoxicity against Homo sapiens (human) HOP92 cells after 48 hr by SRB assay; conditions: HOP-92, 48 h
SN12C = assay: Cytotoxicity against Homo sapiens (human) SN12C cells after 48 hr by SRB assay
COLO 205 = assay: Cytotoxicity against Homo sapiens (human) COLO205 cells after 48 hr by SRB assay; conditions: COLO 205, 48 h
SK-MEL-5 = assay: Cytotoxicity against Homo sapiens (human) SK-MEL-5 cells after 48 hr by SRB assay; conditions: SK-MEL-5, 48 h
MDA-MB-435 = assay: Cytotoxicity against Homo sapiens (human) MDA-MB-435 cells after 48 hr by SRB assay; conditions: MDA-MB-435, 48 h
NCI-H23 = assay: Cytotoxicity against Homo sapiens (human) NCI-H23 cells after 48 hr by SRB assay; conditions: NCI-H23, 48 h
OVCAR-5 = assay: Cytotoxicity against Homo sapiens (human) OVCAR5 cells after 48 hr by SRB assay; conditions: OVCAR-5, 48 h
MCF7 [6] = assay: Cytotoxicity against Homo sapiens (human) MCF7 cells after 48 hr by SRB assay; conditions: MCF7, 48 h
MCF7 [7] = assay: Cytotoxicity against Homo sapiens (human) MCF7 cells assessed as cellular growth after 48 hr by Alamar blue assay; design: concentration or dose not given beside the values
OVCAR-3 = assay: Cytotoxicity against Homo sapiens (human) OVCAR3 cells after 48 hr by SRB assay; conditions: OVCAR-3, 48 h
SF-295 = assay: Cytotoxicity against Homo sapiens (human) SF295 cells after 48 hr by SRB assay; conditions: SF-295, 48 h
UO-31 = assay: Cytotoxicity against Homo sapiens (human) UO31 cells after 48 hr by SRB assay; conditions: UO-31, 48 h
KM12 = assay: Cytotoxicity against Homo sapiens (human) KM12 cells after 48 hr by SRB assay; conditions: KM12, 48 h
[8] = Cytotoxicity against Homo sapiens (human) NCI-H322 cells after 48 hr by SRB assay; conditions: NCI-H322, 48 h
[9] = Cytotoxicity against Homo sapiens (human) melanoma cells after 48 hr by SRB assay; conditions: Melanoma cell
RPMI-8226 = assay: Cytotoxicity against Homo sapiens (human) RPMI8226 cells after 48 hr by SRB assay; conditions: RPMI-8226, 48 h
SW-620 = assay: Cytotoxicity against Homo sapiens (human) SW620 cells after 48 hr by SRB assay; conditions: SW-620, 48 h
[10] = Cytotoxicity against Homo sapiens (human) leukemia cells after 48 hr by SRB assay; conditions: Leukemia cell
[11] = Cytotoxicity against Homo sapiens (human) breast cancer cells after 48 hr by SRB assay; conditions: Cancer cell lines
BT-549 = assay: Cytotoxicity against Homo sapiens (human) BT549 cells after 48 hr by SRB assay; conditions: BT-549, 48 h

O=C(NC1CCCCC1)NS(=O)(=O)c1ccc(-n2nc3c(c2-c2cccs2)Cc2ccccc2-3)cc1
Activity (SF-268): <=32%
GI50 (OVCAR-4): 27 µM
GI50 (CAKI-1): 16 µM
GI50 (NCI-H522): 12.3 µM
GI50 (M14): 64.1 µM
GI50 [1]: 21.3 µM
TGI [1]: 40.1 µM
GI50 (U-251): 25.6 µM
GI50 (MDA-MB-231): 27.9 µM
GI50 [2]: 20.4 µM
GI50 (MOLT-4): 49.9 µM
GI50 (IGROV-1): 4.12 µM
GI50 (786-0): 32.3 µM
GI50 (EKVX): 28.6 µM
GI50 (RXF 393): 29.2 µM
GI50 (Hs-578T): 37.5 µM
GI50 (UACC-62): 19.3 µM
GI50 (HOP-62): > 100 µM
GI50 (SNB-19): 56.8 µM
GI50 [3]: 25.3 µM
TGI [3]: 80.3 µM
GI50 (A549): 28 µM
Activity (NCI-H460): <=32%
GI50 [4]: 49.5 µM
TGI [4]: 93.6 µM
GI50 [5]: 24.2 µM
TGI [5]: 73.3 µM
GI50 (PC-3): 14.5 µM
GI50 (SK-OV-3): 44.5 µM
GI50 (HCT-15): 17.8 µM
GI50 (T47D): 39.7 µM
GI50 (HOP-92): 14.3 µM
GI50 (SN12C): 21.5 µM
GI50 (COLO 205): 23.3 µM
GI50 (SK-MEL-5): 18.7 µM
GI50 (MDA-MB-435): 32.5 µM
GI50 (NCI-H23): 12.8 µM
GI50 (OVCAR-5): 26.6 µM
GI50 (MCF7 [6]): > 100 µM
Activity (MCF7 [7]): <=32%
GI50 (OVCAR-3): 24.5 µM
GI50 (SF-295): 34.9 µM
GI50 (UO-31): 15.4 µM
GI50 (KM12): 34.9 µM
GI50 [8]: 37.9 µM
GI50 [9]: 27.2 µM
TGI [9]: 53.4 µM
GI50 (RPMI-8226): 10.7 µM
GI50 (SW-620): 20.7 µM
GI50 [10]: 17.9 µM
TGI [10]: 26.6 µM
GI50 [11]: 41.7 µM
TGI [11]: 94.2 µM
GI50 (BT-549): 33.7 µM

O=C(Nc1ccccc1)NS(=O)(=O)c1ccc(-n2nc3c(c2-c2cccs2)Cc2ccccc2-3)cc1
Activity (SF-268): <=32%
GI50 (OVCAR-4): 34.9 µM
GI50 (CAKI-1): 11.1 µM
GI50 (NCI-H522): 31.5 µM
GI50 (M14): 25 µM
GI50 [1]: 29.6 µM
TGI [1]: 42.5 µM
GI50 (U-251): 22.9 µM
GI50 (MDA-MB-231): 15.3 µM
GI50 [2]: 16.1 µM
GI50 (MOLT-4): 15.5 µM
GI50 (IGROV-1): 21.4 µM
GI50 (786-0): 17.6 µM
GI50 (EKVX): 26.1 µM
GI50 (RXF 393): 85.3 µM
GI50 (Hs-578T): 16.8 µM
GI50 (UACC-62): 15.8 µM
GI50 (HOP-62): 18.1 µM
GI50 (SNB-19): > 100 µM
GI50 [3]: 31.2 µM
TGI [3]: 98.3 µM
GI50 (A549): 20.8 µM
Activity (NCI-H460): <=32%
GI50 [4]: 44.4 µM
TGI [4]: 80.7 µM
GI50 [5]: 20.4 µM
TGI [5]: 37.2 µM
GI50 (PC-3): 10.4 µM
GI50 (SK-OV-3): 60.8 µM
GI50 (HCT-15): 16.9 µM
GI50 (T47D): 37.9 µM
GI50 (HOP-92): 12.3 µM
GI50 (SN12C): 19.9 µM
GI50 (COLO 205): 44 µM
GI50 (SK-MEL-5): 15.6 µM
GI50 (MDA-MB-435): 22.1 µM
GI50 (NCI-H23): 12.2 µM
GI50 (OVCAR-5): 20.1 µM
GI50 (MCF7 [6]): 13.4 µM
Activity (MCF7 [7]): <=32%
GI50 (OVCAR-3): 21.8 µM
GI50 (SF-295): 21.9 µM
GI50 (UO-31): 32.2 µM
GI50 (KM12): 8.08 µM
GI50 [8]: 4.5 µM
GI50 [9]: 29.5 µM
TGI [9]: 43 µM
GI50 (RPMI-8226): 5.49 µM
GI50 (SW-620): 22.9 µM
GI50 [10]: 12.1 µM
TGI [10]: 85.6 µM
GI50 [11]: 20.8 µM
TGI [11]: 56.5 µM
GI50 (BT-549): 24.1 µM
